From patent publication US9169254B2, “Spiroimidazolone derivative” (Chugai Seiyaku Kabushiki Kaisha, priority 2009, dated 2015)

What follows are compounds tested against T1, human PTH1 receptor (Homo sapiens, UniProt Q03431) (assay: In vitro cAMP signal activity in HKRK-B7 cells (LLC-PK1 cells overexpressing the human PTH1 receptor)). Conditions: 0.1 µM.
T1 sequence (Q03431 27-593): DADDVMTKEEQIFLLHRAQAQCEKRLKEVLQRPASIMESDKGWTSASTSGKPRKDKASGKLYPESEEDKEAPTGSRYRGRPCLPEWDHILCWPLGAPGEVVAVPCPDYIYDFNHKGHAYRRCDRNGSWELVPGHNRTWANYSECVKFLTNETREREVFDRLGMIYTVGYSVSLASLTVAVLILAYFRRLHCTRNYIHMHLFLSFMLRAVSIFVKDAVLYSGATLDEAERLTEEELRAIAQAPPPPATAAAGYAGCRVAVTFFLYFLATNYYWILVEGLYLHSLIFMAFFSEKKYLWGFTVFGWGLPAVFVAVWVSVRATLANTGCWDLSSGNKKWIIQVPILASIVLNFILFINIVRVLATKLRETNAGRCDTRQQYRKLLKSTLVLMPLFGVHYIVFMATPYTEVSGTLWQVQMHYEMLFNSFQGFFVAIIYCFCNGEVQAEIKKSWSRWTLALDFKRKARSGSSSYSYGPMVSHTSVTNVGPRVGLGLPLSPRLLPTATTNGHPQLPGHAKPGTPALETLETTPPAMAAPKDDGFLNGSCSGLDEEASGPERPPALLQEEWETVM
Type: cell-based

Structure (SMILES)	cAMP production activity (%)
Cc1cc(S(=O)(=O)NCC(F)(F)C(F)(F)C(F)(F)F)ccc1CCS(=O)(=O)N1CCC2(CC1)N=C(c1cccc(C(F)(F)F)c1)NC2=O [Compound 667, N-(2,2,3,3,4,4,4-Heptafluoro-butyl)-3-methyl-4-{2-[4-oxo-2-(3-trifluoromethyl-phenyl)-1,3,8-triaza-spiro[4.5]dec-1-ene-8-sulfonyl]-ethyl}-benzenesulfonamide]	40%

Same assay, conditions: HKRK-B7 cells; compound at 1×10^−3 M; cAMP produced as percentage of that produced by hPTH(1-34) at 100 nM

Structure (SMILES)	cAMP production activity (%)
Cc1cc(N(C)C(N)=O)cc(C)c1CCS(=O)(=O)N1CCC2(CC1)N=C(C1CC(C)(C)CC(C)(C)C1)NC2=O [Compound 1298, 1-(3,5-Dimethyl-4-{2-[4-oxo-2-(3,3,5,5-tetramethyl-cyclohexyl)-1,3,8-triaza-spiro[4.5]dec-1-ene-8-sulfonyl]-ethyl}-phenyl)-1-methyl-urea]	117%
CCC1CCC(C2=NC3(CCN(S(=O)(=O)CCc4ccc(NC(C)=O)c(Cl)c4C)CC3)C(=O)N2)CC1 (centres unmarked) [Compound 954, N-(2-chloro-4-{2-[2-(4-ethyl-cyclohexyl)-4-oxo-1,3,8-triaza-spiro[4.5]dec-1-ene-8-sulfonyl]-ethyl}-3-methyl-phenyl)-acetamide]	81%
CCCCCc1ccc(C2=NC3(CCN(S(=O)(=O)/C=C/c4c(C)cc(N(C)C(N)=O)cc4C)CC3)C(=O)N2)cc1 [Compound 1021, 1-(3,5-dimethyl-4-{(E)-2-[4-oxo-2-(4-pentyl-phenyl)-1,3,8-triaza-spiro[4.5]dec-1-ene-8-sulfonyl]-vinyl}-phenyl)-1-methyl-urea]	137%
COc1cccc(C2=NC3(CCN(S(=O)(=O)CCc4ccc(C(=O)N(C)C)cc4C)CC3)C(=O)N2)c1 [Compound 80, 4-{2-[2-(3-methoxy-phenyl)-4-oxo-1,3,8-triaza-spiro[4.5]dec-1-ene-8-sulfonyl]-ethyl}-3,N,N-trimethyl-benzamide]	71%
Cc1cccc(CCCS(=O)(=O)N2CCC3(CC2)N=C(C2CCCCC2)NC3=O)c1 [Compound 316, 2-cyclohexyl-8-(3-m-tolyl-propane-1-sulfonyl)-1,3,8-triaza-spiro[4.5]dec-1-en-4-one]	20%
CC(=CS(=O)(=O)N1CCC2(CC1)N=C(C1CCC(C)CC1)NC2=O)c1c(C)cc(N(C)C(N)=O)cc1C (centres unmarked) [Compound 741, 1-(3,5-dimethyl-4-{1-methyl-2-[2-(4-methyl-cyclohexyl)-4-oxo-1,3,8-triaza-spiro[4.5]dec-1-ene-8-sulfonyl]-vinyl}-phenyl)-1-methyl-urea]	91%
CC(=O)NC(C)c1ccc(/C=C/S(=O)(=O)N2CCC3(CC2)N=C(C2CCCCC2)NC3=O)cc1 (centres unmarked) [Compound 482, N-(1-{4-[(E)-2-(2-cyclohexyl-4-oxo-1,3,8-triaza-spiro[4.5]dec-1-ene-8-sulfonyl)-vinyl]-phenyl}-ethyl)-acetamide]	38%
Cc1cc(C(=O)N(C)C)ccc1CCS(=O)(=O)N1CCC2(CC1)N=C(c1ccc(F)cc1Cl)NC2=O [Compound 90, 4-{2-[2-(2-chloro-4-fluoro-phenyl)-4-oxo-1,3,8-triaza-spiro[4.5]dec-1-ene-8-sulfonyl]-ethyl}-3,N,N-trimethyl-benzamide]	88%
Cc1cc(C(=O)N(C)C)ccc1CCS(=O)(=O)N1CCC2(CC1)N=C(/C=C/c1ccccc1)NC2=O [Compound 142, 3,N,N-trimethyl-4-{2-[4-oxo-2-((E)-styryl)-1,3,8-triaza-spiro[4.5]dec-1-ene-8-sulfonyl]-ethyl}-benzamide]	63%
Cc1cc(N(C)C(=O)CN(C)C)cc(C)c1/C=C/S(=O)(=O)N1CCC2(CC1)N=C(c1cccc(OC(F)(F)F)c1)NC2=O [Compound 608, 2-dimethylamino-N-(3,5-dimethyl-4-{(E)-2-[4-oxo-2-(3-trifluoromethoxy-phenyl)-1,3,8-triaza-spiro[4.5]dec-1-ene-8-sulfonyl]-vinyl}-phenyl)-N-methyl-acetamide]	20%
CCCCCCCCCC1=NC2(CCN(S(=O)(=O)/C=C/c3ccc(N(CCOCCO)C(C)=O)cc3C)CC2)C(=O)N1 [Compound 700, N-[2-(2-Hydroxy-ethoxy)-ethyl]-N-{3-methyl-4-[(E)-2-(2-nonyl-4-oxo-1,3,8-triaza-spiro[4.5]dec-1-ene-8-sulfonyl)-vinyl]-phenyl}-acetamide]	121%
CN(C)C(=O)n1ccc2c(/C=C/S(=O)(=O)N3CCC4(CC3)N=C(C3CCCCC3)NC4=O)cccc21 [Compound 189, 4-[(E)-2-(2-cyclohexyl-4-oxo-1,3,8-triaza-spiro[4.5]dec-1-ene-8-sulfonyl)-vinyl]-indole-1-carboxylic acid dimethylamide]	54%
Cc1cc(C(=O)N(C)C)ccc1CCS(=O)(=O)N1CCC2(CC1)N=C(c1cc(C(F)(F)F)ccc1C)NC2=O [Compound 112, 3,N,N-trimethyl-4-{2-[2-(2-methyl-5-trifluoromethyl-phenyl)-4-oxo-1,3,8-triaza-spiro[4.5]dec-1-ene-8-sulfonyl]-ethyl}-benzamide]	77%
CC(C)(C)C1=NC2(CCN(S(=O)(=O)CCc3cccc4ccccc34)CC2)C(=O)N1 [Compound 36, 2-tert-butyl-8-(2-naphthalen-1-yl-ethanesulfonyl)-1,3,8-triaza-spiro[4.5]dec-1-en-4-one]	3.5%
Cc1cc(OCCC(O)CO)cc(C)c1/C=C/S(=O)(=O)N1CCC2(CC1)N=C(c1ccc(F)c(C(F)(F)F)c1)NC2=O (centres unmarked) [Compound 639, 8-{(E)-2-[4-(3,4-Dihydroxy-butoxy)-2,6-dimethyl-phenyl]-ethenesulfonyl}-2-(4-fluoro-3-trifluoromethyl-phenyl)-1,3,8-triaza-spiro[4.5]dec-1-en-4-one]	101%
Cc1cc(N(C)C(N)=O)cc(C)c1CCS(=O)(=O)N1CCC2(CC1)N=C(C1CCCC(C(F)(F)F)C1)NC2=O (centres unmarked) [Compound 1050, 1-(3,5-Dimethyl-4-{2-[4-oxo-2-(3-trifluoromethyl-cyclohexyl)-1,3,8-triaza-spiro[4.5]dec-1-ene-8-sulfonyl]-ethyl}-phenyl)-1-methyl-urea]	92%
Cc1cc(N(C)C(N)=O)cc(C)c1/C=C/S(=O)(=O)N1CCC2(CC1)N=C(CCCCCCCCCC(N)=O)NC2=O [Compound 1172, 10-(8-{(E)-2-[2,6-Dimethyl-4-(1-methyl-ureido)-phenyl]-ethenesulfonyl}-4-oxo-1,3,8-triaza-spiro[4.5]dec-1-en-2-yl)-decanoic amide]	73%
CC(=O)Nc1ccc(CCS(=O)(=O)N2CCC3(CC2)N=C(c2cccc(C)c2C)NC3=O)c(C)c1 [Compound 146, N-(4-{2-[2-(2,3-dimethyl-phenyl)-4-oxo-1,3,8-triaza-spiro[4.5]dec-1-ene-8-sulfonyl]-ethyl}-3-methyl-phenyl)-acetamide]	122%
CN1CCCc2c(CCS(=O)(=O)N3CCC4(CC3)N=C(C3CCCCC3)NC4=O)cccc21 [Compound 747, 2-cyclohexyl-8-[2-(1-methyl-1,2,3,4-tetrahydro-quinolin-5-yl)-ethanesulfonyl]-1,3,8-triaza-spiro[4.5]dec-1-en-4-one]	55%
Cc1cc(C(=O)N2CCN(CCF)CC2)cc(C)c1/C=C/S(=O)(=O)N1CCC2(CC1)N=C(C1CCC(CCC(F)(F)F)CC1)NC2=O (centres unmarked) [Compound 549, 8-((E)-2-{4-[4-(2-fluoro-ethyl)-piperazine-1-carbonyl]-2,6-dimethyl-phenyl}-ethenesulfonyl)-2-[4-(3,3,3-trifluoro-propyl)-cyclohexyl]-1,3,8-triaza-spiro[4.5]dec-1-en-4-one]	86%
Cc1cc(C(=O)N2CC(F)(F)C(F)(F)C2)ccc1CCS(=O)(=O)N1CCC2(CC1)N=C(C1CCCCC1)NC2=O [Compound 283, 2-cyclohexyl-8-{2-[2-methyl-4-(3,3,4,4-tetrafluoro-pyrrolidine-1-carbonyl)-phenyl]-ethanesulfonyl}-1,3,8-triaza-spiro[4.5]dec-1-en-4-one]	63%
Cc1cc(C2=NC3(CCN(S(=O)(=O)CCc4ccc(C(=O)N(C)C)cc4C)CC3)C(=O)N2)ccc1F [Compound 117, 4-{2-[2-(4-fluoro-3-methyl-phenyl)-4-oxo-1,3,8-triaza-spiro[4.5]dec-1-ene-8-sulfonyl]-ethyl}-3,N,N-trimethyl-benzamide]	61%
CCCCC1CCC(C2=NC3(CCN(S(=O)(=O)/C=C/c4c(C)cc(N(CCOCCOC)C(C)=O)cc4C)CC3)C(=O)N2)CC1 (centres unmarked) [Compound 561, N-(4-{(E)-2-[2-(4-butyl-cyclohexyl)-4-oxo-1,3,8-triaza-spiro[4.5]dec-1-ene-8-sulfonyl]-vinyl}-3,5-dimethyl-phenyl)-N-[2-(2-methoxy-ethoxy)-ethyl]-acetamide]	52%
O=C1NC(C2CCCCC2)=NC12CCN(S(=O)(=O)CCc1cc3cc[nH]c3cc1C(F)(F)F)CC2 [Compound 836, 2-cyclohexyl-8-[2-(6-trifluoromethyl-1H-indol-5-yl)-ethanesulfonyl]-1,3,8-triaza-spiro[4.5]dec-1-en-4-one]	56%
O=C1NC(C2CCCCC2)=NC12CCN(S(=O)(=O)C#Cc1cccc3[nH]ccc13)CC2 [Compound 1377, 2-Cyclohexyl-8-[2-(1H-indol-4-yl)-ethynesulfonyl]-1,3,8-triaza-spiro[4.5]dec-1-en-4-one]	35%
